Experimental data: ChEMBL document CHEMBL2439947, “Intermolecular interaction of voriconazole analogues with model membrane by DSC and NMR, and their antifungal activity using NMR based metabolic profiling” (2013)
Converted amounts (≈) assume the structure as drawn. The source made the active and inactive calls. The rule behind the calls is not given here.

What was measured:
[1] = test system: Candida albicans; assay: Antifungal activity against Candida albicans ATCC 10231 assessed as acetate level after 18 hrs by [1H] NMR spectroscopic analysis; type: functional
[2] = test system: Lipid bilayer; assay: Binding affinity to DPPC liposomes assessed as change in pre-transition temperature at 1:5 drug to DPPC liposome molar ratio by differential scanning calorimetric analysis
[3] = test system: Lipid bilayer; assay: Binding affinity to DPPC liposomes after 2 hrs by double reciprocal plot analysis
[4] = test system: Candida albicans; assay: Antifungal activity against Candida albicans ATCC 10231 assessed as pyruvate level after 32 hrs by [1H] NMR spectroscopic analysis; type: functional
[5] = test system: Lipid bilayer; assay: Binding affinity to DPPC liposomes at 1:5 drug to DPPC liposome molar ratio by [1H] NMR spectroscopic analysis
[6] = test system: Lipid bilayer; assay: Binding affinity to DPPC liposomes assessed as change in pre-transition temperature at 1:2 drug to DPPC liposome molar ratio by differential scanning calorimetric analysis
[7] = test system: Candida albicans; assay: Antifungal activity against Candida albicans ATCC 10231 after 48 hrs by tube dilution method; type: functional; settings: ATCC 10231, 48 h
[8] = test system: Candida albicans; assay: Antifungal activity against Candida albicans ATCC 10231 assessed as pyruvate level after 24 hrs by [1H] NMR spectroscopic analysis; type: functional
[9] = test system: Lipid bilayer; assay: Binding affinity to DPPC liposomes at 1:5 drug to DPPC liposome molar ratio by [13C] NMR spectroscopic analysis
[10] = test system: Lipid bilayer; assay: Binding affinity to DPPC liposomes assessed as change in pre-transition temperature at 1:10 drug to DPPC liposome molar ratio by differential scanning calorimetric analysis
[11] = test system: Lipid bilayer; assay: Binding affinity to DPPC liposomes by 2D-NOESY spectroscopic analysis
[12] = test system: Candida albicans; assay: Antifungal activity against Candida albicans ATCC 10231 assessed as pyruvate level after 18 hrs by [1H] NMR spectroscopic analysis; type: functional
[13] = test system: Candida albicans; assay: Antifungal activity against Candida albicans ATCC 10231 assessed as acetate level after 24 hrs by [1H] NMR spectroscopic analysis; type: functional
[14] = test system: Lipid bilayer; assay: Binding affinity to DPPC liposomes at 1:2 to 1:10 drug to DPPC liposome molar ratio by [31P] NMR spectroscopic analysis
[15] = test system: Candida albicans; assay: Antifungal activity against Candida albicans ATCC 10231 after 24 hrs by broth microdilution method; type: functional; settings: ATCC 10231, 24 h
[16] = test system: Candida albicans; assay: Antifungal activity against Candida albicans ATCC 10231 assessed as ethanol level after 24 hrs by [1H] NMR spectroscopic analysis; type: functional
[17] = test system: Lipid bilayer; assay: Binding affinity to DPPC liposomes assessed as melting temperature at 1:10 drug to DPPC liposome molar ratio by differential scanning calorimetric analysis
[18] = test system: Lipid bilayer; assay: Binding affinity to DPPC liposomes assessed as melting temperature at 1:2 drug to DPPC liposome molar ratio by differential scanning calorimetric analysis
[19] = test system: Candida albicans; assay: Antifungal activity against Candida albicans ATCC 10231 assessed as ethanol level after 18 hrs by [1H] NMR spectroscopic analysis; type: functional
[20] = test system: Candida albicans; assay: Antifungal activity against Candida albicans ATCC 10231 assessed as acetate level after 32 hrs by [1H] NMR spectroscopic analysis; type: functional
[21] = test system: Lipid bilayer; assay: Binding affinity to DPPC liposomes assessed as melting temperature at 1:5 drug to DPPC liposome molar ratio by differential scanning calorimetric analysis
[22] = test system: Candida albicans; assay: Antifungal activity against Candida albicans ATCC 10231 assessed as ethanol level after 32 hrs by [1H] NMR spectroscopic analysis; type: functional
[23] = test system: Lipid bilayer; assay: Binding affinity to DPPC liposomes after 2 hrs by spectrophotometric analysis relative to control

With C[C@@H](c1ncncc1F)[C@@](Cn1cncn1)(OC(=O)c1ccccc1)c1ccc(F)cc1F [VORICONAZOLE BENZOATE] the Activity [1] was 6 µg/mL, the Activity [2] was “Active” and the Kapp [3] was 1.22 M⁻¹. The Activity [4] was 3 µg/mL, the Activity [5] was “Active” and the Activity [6] was “Active”. The MIC [7] was 4 µg/mL (≈ 8.82 µM), the Activity [8] was 3 µg/mL and the Activity [9] was “Active”. For the same compound, the T [10] was 30.1 °C, the Activity [11] was “Active” and the Activity [12] was 4 µg/mL. The Activity [13] was 4 µg/mL, the Activity [14] was “Active” and the MIC [15] was 4 µg/mL (≈ 8.82 µM). For the same compound, the Activity [16] was 4 µg/mL, the Tm [17] was 40.9 °C and the Tm [18] was 39.5 °C. The Activity [19] was 5 µg/mL, the Activity [20] was 4 µg/mL and the Tm [21] was 39.5 °C. It also gave an Activity [22] of 4 µg/mL.

For COc1ccc(C(=O)O[C@@](Cn2cncn2)(c2ccc(F)cc2F)[C@@H](C)c2ncncc2F)cc1 [VORICONAZOLE P-METHOXY BENZOATE], the Activity [1] was 4 µg/mL, the Activity [2] was “Active” and the Kapp [3] was 1.16 M⁻¹. For the same compound, the Activity [4] was 1 µg/mL, the Activity [5] was “Active” and the Activity [6] was “Active”. For the same compound, the MIC [7] was 3 µg/mL (≈ 6.21 µM), the Activity [8] was 1 µg/mL and the Activity [9] was “Active”. The Activity [10] was “Active”, the Activity [11] was “Active” and the Activity [12] was 2 µg/mL. For the same compound, the Activity [13] was 3 µg/mL, the Activity [14] was “Active” and the MIC [15] was 3 µg/mL (≈ 6.21 µM). For the same compound, the Activity [16] was 3 µg/mL, the Tm [17] was 39.2 °C and the Activity [23] was 50%. For the same compound, the Tm [18] was 38.3 °C, the Activity [19] was 3 µg/mL and the Activity [20] was 2 µg/mL. It also gave a Tm [21] of 39.1 °C and an Activity [22] of 2 µg/mL.

With C[C@@H](c1ncncc1F)[C@@](Cn1cncn1)(OC(=O)c1ccc([N+](=O)[O-])cc1)c1ccc(F)cc1F [VORICONAZOLE P-NITRO BENZOATE] the Activity [1] was 8 µg/mL, the Activity [2] was “Active” and the Kapp [3] was 0.505 M⁻¹. For the same compound, the Activity [4] was 5 µg/mL, the Activity [5] was “Active” and the Activity [6] was “Active”. For the same compound, the MIC [7] was 8 µg/mL (≈ 16.1 µM), the Activity [8] was 5 µg/mL and the Activity [9] was “Active”. For the same compound, the Activity [10] was “Active”, the Activity [11] was “Active” and the Activity [12] was 5 µg/mL. The Activity [13] was 7 µg/mL, the Activity [14] was “Active” and the MIC [15] was 7 µg/mL (≈ 14 µM). The Activity [16] was 7 µg/mL, the Tm [17] was 60 °C and the Tm [18] was 59.6 °C. For the same compound, the Activity [19] was 8 µg/mL, the Activity [20] was 6 µg/mL and the Tm [21] was 60 °C. For the same compound, the Activity [22] was 7 µg/mL.

For Cc1ccc(C(=O)O[C@@](Cn2cncn2)(c2ccc(F)cc2F)[C@@H](C)c2ncncc2F)cc1 [VORICONAZOLE TOLUATE], the Activity [1] was 6 µg/mL, the Activity [2] was “Active” and the Kapp [3] was 0.871 M⁻¹. The Activity [4] was 3 µg/mL, the Activity [5] was “Active” and the Activity [6] was “Active”. For the same compound, the MIC [7] was 5 µg/mL (≈ 10.7 µM), the Activity [8] was 3 µg/mL and the Activity [9] was “Active”. For the same compound, the Activity [10] was “Active”, the Activity [11] was “Active” and the Activity [12] was 4 µg/mL. For the same compound, the Activity [13] was 6 µg/mL, the Activity [14] was “Active” and the MIC [15] was 5 µg/mL (≈ 10.7 µM). The Activity [16] was 5 µg/mL, the Tm [17] was 34 °C and the Tm [18] was 32.4 °C. For the same compound, the Activity [19] was 5 µg/mL, the Activity [20] was 5 µg/mL and the Tm [21] was 32.6 °C. For the same compound, the Activity [22] was 4 µg/mL.

In the case of C[C@@H](c1ncncc1F)[C@](O)(Cn1cncn1)c1ccc(F)cc1F [VORICONAZOLE], the Activity [1] is reported as 3 µg/mL, the Activity [2] is reported as “Active” and the Kapp [3] is reported as 0.0543 M⁻¹. For the same compound, the Activity [4] was 1 µg/mL, the Activity [5] was “Active” and the Activity [6] was “Active”. The MIC [7] was 1 µg/mL (≈ 2.86 µM), the Activity [8] was 1 µg/mL and the Activity [9] was “Active”. For the same compound, the Activity [10] was “Active”, the Activity [11] was “Active” and the Activity [12] was 1 µg/mL. For the same compound, the Activity [13] was 2 µg/mL, the Activity [14] was “inactive” and the MIC [15] was 1 µg/mL (≈ 2.86 µM). The Activity [16] was 1 µg/mL, the Tm [17] was 38.5 °C and the Tm [18] was 37.4 °C. It also gave an Activity [19] of 2 µg/mL, an Activity [20] of 2 µg/mL and a Tm [21] of 38.5 °C. It also gave an Activity [22] of 1 µg/mL.
